Patent publication US5298616A, “Sulfated O-polysaccharide-trehaloses” (Hoffmann-La Roche Inc., priority 1990, dated 1994)

Legend:
citrated human plasma = assay: aPTT (activated partial thromboplastin time) Test; type: biochemical; conditions: concentration which doubles the coagulation time vs control
Method: (§1) The blood coagulation-inhibiting activity was determined as follows:
aPTT (activated partial thromboplastin time) Test (see Walenga et al., CRC Critical Reviews in Laboratory Sciences 22 (4) 361-389 (1986)): 100 μl of citrated human plasma, which contains various concentrations of test compound, is incubated at 37° C. for 8 minutes with 100 μl of Activated Thrombofax (Ortho Diagnostics, Raritan, N.J., U.S.A.). 100 μl of prewarmed 25 mM calcium chloride solution are then added and the coagulation time is measured in a Fibrometer Coagulation Timer (Becton Dickinson, Basle).
(§2) The activity of the test compound is given as the IC50, which is that concentration [μg/ml] which leads to a coagulation time which is double the control value.

Factor Xa [1] = target: T1, Factor Xa (Bos taurus, UniProt P00743); assay: anti-Xa Clotting Assay; type: biochemical; conditions: concentration which doubles the coagulation time vs control; citrated plasma
Method: as §1
anti-Xa Clotting Assay: 25 μl of citrated plasma having various concentrations of test compound are mixed with 75 μl of Factor Xa (Diagnostic Reagents, Thame, Oxon, Great Britain) diluted 1:100 in 0.63% citrate buffer (pH 7.3) which contains 41 mM imidazole, 82 mM NaCl and 0.1% albumin. After warming to 37° C. for 2 minutes 200 μl of a 1:1 mixture of Factor X Deficient Plasma (Diagnostic Reagents) and Platelet Substitute (Diagnostic Reagents) are added and the mixture is incubated at 37° C. for 20 seconds. After the addition of 100 μl of prewarmed 50 mM calcium chloride solution the coagulation time is measured in a Fibrometer.
as §2

thrombin = thrombin (Homo sapiens, UniProt P00734); assay: Inhibition of Thrombin in the Chromogenic Substrate Assay; type: biochemical; conditions: amidolytic activity reduced by 50% vs plasma control; anti-thrombin III, S-2238
Method: as §1
The buffer solution used consisted of 50 mM Tris buffer, 180 mM NaCl, 7.5 mM EDTA Na2, 1% PEG 6000 and 0.02% Tween 80, pH 8.4. The sample consisted of 50 μl of buffer, 30 μl of anti-thrombin Ill (1 U/ml), Kabi Diagnostics) and 20 μl of plasma which contained various concentrations of test compounds. 30 μl of sample solution and 20 μl of water with 180 μl of thrombin were added to the test cuvette in the automatic analyzer. […] The liberation of pNA (p-nitroaniline) was followed during 60 seconds at 405 nm in 10 second intervals in comparison to water as the blank.

Factor Xa [2] = target: T1, Factor Xa; assay: Inhibition of Factor Xa in the Chromogenic Substrate Assay; type: biochemical; conditions: amidolytic activity reduced by 50% vs plasma control; S-2222
Method: as §1
Inhibition of Thrombin or Factor Xa in the Chromogenic Substrate Assay (Teien et al., Thrombosis Research 10, 399-410 (1977)): The test was performed in a Cobas-Bio centrifugal automatic spectrophotometer. The buffer solution used consisted of 50 mM Tris buffer, 180 mM NaCl, 7.5 mM EDTA Na2, 1% PEG 6000 and 0.02% Tween 80, pH 8.4. The sample consisted of 50 μl of buffer, 30 μl of anti-thrombin Ill (1 U/ml), Kabi Diagnostics) and 20 μl of plasma which contained various concentrations of test compounds. 30 μl of sample solution and 20 μl of water with 180 μl of thrombin were added to the test cuvette in the automatic analyzer. After incubation at 37° C. for 240 seconds 60 μl of S-2238 (H-D-Phe-Pip-Arg-NH.pNA, Kabi Diagnostics, Mondal, Sweden, 0.75 mM in water) and 20 μl of water were added. The liberation of pNA (p-nitroaniline) was followed during 60 seconds at 405 nm in 10 second intervals in comparison to water as the blank. The inhibitory activity is given as the IC50, which is the concentration [μg/ml] at which the amidolytic activity of thrombin is reduced by 50% in comparison to the plasma control value.
The inhibition of Factor Xa was measured in the same manner using a solution of Factor Xa (2.8 nkat/ml and 2 mM S-2222 (Bz-CO-Ile-Glu-Arg-NH.pNA, Kabi Diagnostics) in water in place of thrombin and, respectively, S-2238.

rat smooth muscle cells = assay: anti-proliferative activity in cell cultures; type: cell-based; conditions: for Anti-proliferative activity % inhibition: 100 μg/ml test substance, 7 days, vs non-inhibited growth
Method: The anti-proliferative activity of the substances was determined in cell cultures as follows: rat smooth muscle cells (cultivated in DMEM with 10% FCS at 37° C. and 5% CO2) were seeded in 24 well cell culture plates with a density of 8×10^3 cells/well. After 4 hours the number of adhered cells was determined and the substances to be tested ([…]) were added. Cells to which no substance was added served as a comparison and heparin (100 μg/ml) served as a positive control. The cells were incubated for 7 days and then the cell number was determined. The antiproliferative activity of the individual substances was calculated as the % inhibition in comparison to non-inhibited growth: [formula] wherein cell number(d=O) cell number after 4 h cell number(-)=cell number to which no test
substances was added, after 7 days.
cell number(inhib)=cell number with
100 μg/ml of the test substance.

T1 sequence (P00743 234-492 limits assumed): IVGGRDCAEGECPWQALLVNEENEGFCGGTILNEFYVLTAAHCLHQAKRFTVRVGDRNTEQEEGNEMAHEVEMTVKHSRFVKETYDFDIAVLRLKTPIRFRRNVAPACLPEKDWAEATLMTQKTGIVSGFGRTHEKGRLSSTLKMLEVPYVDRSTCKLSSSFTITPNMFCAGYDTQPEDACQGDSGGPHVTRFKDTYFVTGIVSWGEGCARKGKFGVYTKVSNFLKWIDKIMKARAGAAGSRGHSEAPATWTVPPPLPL

| Substance | Anti-coagulation activity IC50, Coagulation inhibition aPTT (citrated human plasma) | Anti-coagulation activity IC50, Coagulation inhibition Xa (Factor Xa [1]) | Anti-coagulation activity IC50, Amidolytic activity Thrombin (thrombin) | Anti-coagulation activity IC50, Amidolytic activity F.Xa (Factor Xa [2]) | Anti-proliferative activity % inhibition (rat smooth muscle cells) | anti-proliferative activity (rat smooth muscle cells; result in words) |
| --- | --- | --- | --- | --- | --- | --- |
| sulphated 4-O-(β-D-glucopyranosyl) -α,α-D-trehalose [Example 2C] | 40 µg/mL | 115 µg/mL | > 1000 µg/mL | > 1000 µg/mL | 38% |  |
| sulphated 4-O-(β-D-maltosyl)-α,α-D-trehalose [Example 3C] | 12 µg/mL | 33.5 µg/mL | > 1000 µg/mL | > 1000 µg/mL | 59% |  |
| sulphated 4-O -(β-D-maltotriosyl)-α,α-D-trehalose [Example 4C] | 11 µg/mL | 32 µg/mL | > 1000 µg/mL | > 1000 µg/mL | 64% |  |
| sulphated 4-O-(α-D-maltotriosyl)-α,α-D-trehalose [Example 1G] | 11 µg/mL | 31 µg/mL | > 1000 µg/mL | 960 µg/mL | 57% |  |
| sulphated 4-O-(β-D-cellobiosyl)-α,α-D-trehalose [Example 5C] | 33 µg/mL | 69 µg/mL | > 1000 µg/mL | > 1000 µg/mL | 39% |  |

Second part, led by results:

| Anti-coagulation activity IC50, Coagulation inhibition aPTT (citrated human plasma) | Anti-coagulation activity IC50, Coagulation inhibition Xa (Factor Xa [1]) | Anti-coagulation activity IC50, Amidolytic activity Thrombin (thrombin) | Anti-coagulation activity IC50, Amidolytic activity F.Xa (Factor Xa [2]) | Substance | Anti-proliferative activity % inhibition (rat smooth muscle cells) | anti-proliferative activity (rat smooth muscle cells; result in words) |
| --- | --- | --- | --- | --- | --- | --- |
| 14.5 µg/mL | 28.5 µg/mL | > 1000 µg/mL | 900 µg/mL | sulphated 4,4'-bis-O-(β-D-maltosyi)-α,α-D-trehalose [Example 6D] | 67% |  |
| 13.5 µg/mL | 34 µg/mL | > 1000 µg/mL | > 1000 µg/mL | sulphated 4,4'-bis -O-(β-D-glucopyranosyl)-α,α-D-trehalose [Example 7C] | 49% |  |
| 1.2 µg/mL | 0.6 µg/mL | 1.9 µg/mL | 2.7 µg/mL | Heparin [reference compound] |  | anti-proliferatively active |
